Assay [1] deals with T1, SSTR2 (Rattus norvegicus, UniProt P30680). Kind of assay: cAMP accumulation in forskolin-stimulated GH4C1/SSTR2 cells (SPA radioimmunoassay). Conditions: cAMP level, dose response of SRIF agonist + 10 µM peptide 1, forskolin stimulated cells. On the set-up: expressed in transfected cells; host or cells: GH4C1 rat pituitary tumor cells (GH4C1/SSTR2). The format is cell-based. The source says: A primary effect of SRIF upon mammalian cells is the reduction of cyclic adenosine 3',5'-monophosphate(cAMP) levels, via inhibition of adenylyl cyclase. This is the basis of a common assay for SRIF agonists and antagonists, whereby SRIF agonists reduce artificially stimulated cAMP levels, and SRIF antagonists reverse the effect of SRIF. The rat pituitary tumor cell line GH4C1 predominantly expresses SSTR2, and responds to SRIF and to forskolin, a stimulator of adenylate cyclase (see C.M. Eppler, et al., J. Biol. Chem., 267, 15603-15612, 1992, incorporated herein by reference). […] This increases the response to SRIF and provides a greater dynamic range for the measurement of SRIF antagonist activity.
T1 sequence (P30680 whole entry): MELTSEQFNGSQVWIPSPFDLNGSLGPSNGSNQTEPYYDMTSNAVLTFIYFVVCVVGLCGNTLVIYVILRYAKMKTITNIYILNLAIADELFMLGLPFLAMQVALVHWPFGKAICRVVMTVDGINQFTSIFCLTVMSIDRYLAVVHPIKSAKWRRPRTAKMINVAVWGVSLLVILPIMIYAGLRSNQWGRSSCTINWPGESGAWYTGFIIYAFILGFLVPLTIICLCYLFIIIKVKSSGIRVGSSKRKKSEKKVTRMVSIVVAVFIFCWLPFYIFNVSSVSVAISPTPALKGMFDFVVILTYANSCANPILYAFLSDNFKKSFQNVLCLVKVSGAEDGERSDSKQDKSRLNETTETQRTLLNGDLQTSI
Stimulation of cells. GH4C1/SSTR2 cells, grown in DMEM with 10% bovine serum, are released from a tissue culture dish by incubation for several minutes at 37° C with PBS containing 0.5 mM EDTA. Cells are washed in induction buffer (PBS containing 100 µM IBMX (an inhibitor of cAMP breakdown) and 2 mM CaCl2) at room temperature, and resuspended at 2 x 10^6/mL in induction buffer. Into each well of a 96-well tray are added 50 µL of a 2 X concentration of stimulants in induction buffer. […] Baseline cAMP levels are determined in samples with no added forskolin or SRIF, and each treatment is performed in triplicate.
cAMP assay. […] The 96-well tray is sealed, shaken at room temperature overnight and measured for bound radioligand in a MicroBeta liquid scintillation counter (Wallac, Gaithersburg. MD). The standard curve is determined for each experiment by performing a nonlinear regression (exponential decay) analysis of cpm measured for the cAMP standards vs. their log concentrations, and test sample values are determined by using Prism software (Graphpad Software Inc., San Diego, CA) and are shown in Table II and Figure 1.
The intrinsic activity of an SRIF antagonist is the percent reversal of the SSTR2 activation by SRIF or MK678, wherein 0% is defined by cAMP levels in samples treated with forskolin plus SRIF or MK678 and 100% is the cAMP level measured after treatment with forskolin alone. […]

The target in assay [2] is SRIF receptors expressed in S. cerevisiae (yeast) LY364 cells. Kind of assay: cell-based or functional assay.
Assay [3] deals with T1, SSTR2. The assay can be described thus: cAMP accumulation in forskolin-stimulated GH4C1/SSTR2 cells (SPA radioimmunoassay). The format is cell-based. On the set-up: expressed in transfected cells; host or cells: GH4C1 rat pituitary tumor cells. Conditions: test peptide 2 µM; percent reversal of SSTR2 activation by SRIF or MK678; 0% = forskolin plus agonist, 100% = forskolin alone.

For a further assay, the target named is T2, SRIF receptors (Rattus norvegicus, UniProt P30680).
T2 construct: expressed in transfected cells; host or cells: Saccharomyces cerevisiae strain LY364
T2 sequence (P30680 whole entry): as above
Kind of assay: Yeast bioassay for SRIF antagonist activity (zone of growth inhibition of LY364 cells growing in response to SRIF). The format is cell-based. Conditions: Table III; diameter of zone of growth inhibition; 10 µL of 5 mg/mL on filter disk; S-14 10 nM. The procedure:
Agar plates containing LY364 cells that are growing in the presence of added SRIF are the basis for a sensitive SRIF antagonist assay, whereby zones of growth inhibition result from the addition of SRIF antagonists to the surface of the agar plate (see L.A. Price, et al., Molecular and Cellular Biology, 15, 6188-6195, 1995, incorporated herein by reference).
In this assay, LY364 cells are grown overnight in 2 mL of synthetic complete(SC) medium (3.4 g/L YNB without amino acids and ammonium sulfate, 10 g/L ammonium sulfate and 1.4 g/L CSM-ura-trp) with glucose (2%) and without uracil and tryptophan. These cells are washed and cultured for 4 to 8 hours in 5 mL of SC medium with lactate (3%) and without uracil and tryptophan, and finally grown overnight in 5 mL of SC medium with galactose (2%) and without uracil and tryptophan. Molten (50° C) SC agar medium with galactose (2%) and without uracil, tryptophan and histidine is adjusted to pH 6.8 with KOH, mixed with 2 x 10^4 cells/mL and SRIF (S-14, 10 nM) and poured into square (20 x 20 cm) petri dishes. Sterile filter disks are placed on the surface of the agar, and saturated with 10 µL of water or DMSO containing 5 mg/mL test peptides. After three days, the plates display a uniform cloudy background of […] cells growing in response to the added SRIF. […] This zone is quantified by measuring its diameter (mm), which varies according to the potency of the SRIF antagonist. Those peptides or mixtures of peptides displaying the largest zones of inhibition are further characterized.
Values are compared among samples in the same experiment, as the degree of yeast growth varies somewhat from assay to assay. For the first five sample types, in which progressively less complex mixtures of peptides are found, this assay is the primary determining factor in choosing which samples form the basis of subsequent syntheses.
Plates are read after 3 days. Samples shown in Table I in bold type are chosen for further synthesis. In Table I, all amino acids are D-amino acids and dashes represent undefined amino acid residues.

In the case of `CC(C)[C@@H]1NC(=O)[C@H](CCCCN)NC(=O)[C@@H](Cc2c[nH]c3ccccc23)NC(=O)[C@H](Cc2ccc(O)cc2)NC(=O)[C@H](C)N(C)C(=O)[C@H](Cc2ccccc2)NC1=O` [MK678], on SSTR2 [1], the Maximum is reported as 8.705 and the Minimum is given as 2.775.
With “Ac-His-Phe-Ile-Arg-Trp-Ala-NH2 (all D), Seq Id No. 22 (peptide)”, the Inhibition Zone (mm), yeast bioassay for SRIF antagonist activity (LY364 cells growing on 10 nM S-14; 10 µL of 5 mg/mL peptide on a filter disk) in assay [2] was determined as 15 mm.
The molecule “Ac-His-Phe-Ile-Arg-Trp-Asn-NH2 (all D), Seq Id No. 23 (peptide)” came in with an Inhibition Zone (mm), yeast bioassay for SRIF antagonist activity (LY364 cells growing on 10 nM S-14; 10 µL of 5 mg/mL peptide on a filter disk) in assay [2] of 15 mm.
On the same count and under the same terms, then “Ac-His-Phe-Ile-Arg-Trp-Gln-NH2 (all D), Seq Id No. 26 (peptide)”, with 16 mm; and “Ac-His-Phe-Ile-Arg-Trp-Gly-NH2 (D-amino acids) (peptide)”, with 13 mm; and “Ac-His-Phe-Ile-Arg-Trp-Ile-NH2 (all D), Seq Id No. 21 (peptide)”, with 16 mm.
Molecule “Ac-His-Phe-Ile-Arg-Trp-Leu-NH2 (all D), Seq Id No. 18 (peptide)” had an Inhibition Zone (mm), yeast bioassay for SRIF antagonist activity (LY364 cells growing on 10 nM S-14; 10 µL of 5 mg/mL peptide on a filter disk) in assay [2] of 15 mm.
Regarding “Ac-His-Phe-Ile-Arg-Trp-Met-NH2 (all D), Seq Id No. 24 (peptide)”, the Inhibition Zone (mm), yeast bioassay for SRIF antagonist activity (LY364 cells growing on 10 nM S-14; 10 µL of 5 mg/mL peptide on a filter disk) in assay [2] is 18 mm.
For the molecule “Ac-His-Phe-Ile-Arg-Trp-Thr-NH2 (all D), Seq Id No. 19 (peptide)”, the Inhibition Zone (mm), yeast bioassay for SRIF antagonist activity (LY364 cells growing on 10 nM S-14; 10 µL of 5 mg/mL peptide on a filter disk) in assay [2] amounted to 14 mm.
“Ac-His-Phe-Ile-Arg-Trp-Trp-NH2 (all D), Seq Id No. 25 (peptide)” displayed an Inhibition Zone (mm), yeast bioassay for SRIF antagonist activity (LY364 cells growing on 10 nM S-14; 10 µL of 5 mg/mL peptide on a filter disk) in assay [2] of 16 mm.
In assay [2], “Ac-His-Phe-Ile-Arg-Trp-Tyr-NH2 (all D), Seq Id No. 20 (peptide)” gave an Inhibition Zone (mm), yeast bioassay for SRIF antagonist activity (LY364 cells growing on 10 nM S-14; 10 µL of 5 mg/mL peptide on a filter disk) of 16 mm.
The molecule “Peptide 1, Ac-D-His-D-Phe-D-Ile-D-Arg-D-Trp-D-Phe-NH2” came in with an Inhibition Zone (mm), yeast bioassay for SRIF antagonist activity (LY364 cells growing on 10 nM S-14; 10 µL of 5 mg/mL peptide on a filter disk) in assay [2] of 18 mm.
For h-F-i-r-w-f [Peptide 14], on SSTR2 [3], the “cAMP Assay Intrinsic activity” value is 29.6%. Also, the “Yeast Assay (mm)” value at SRIF receptors was 16 mm.
As to h-a-i-r-w-f [Peptide 3], the “cAMP Assay Intrinsic activity” value at SSTR2 [3] came to 9.33%. In addition, the “Yeast Assay (mm)” value at SRIF receptors is “none”.
For h-f-I-r-w-f [Peptide 15], the “cAMP Assay Intrinsic activity” value at SSTR2 [3] turned out to be 9.71%. In addition, the “Yeast Assay (mm)” value at SRIF receptors was 9 mm.
h-f-a-r-w-f [Peptide 4]: on SSTR2 [3], the “cAMP Assay Intrinsic activity” value worked out at 41.8%. Besides, the “Yeast Assay (mm)” value at SRIF receptors was 16 mm.
For h-f-i-R-w-f [Peptide 16], the “cAMP Assay Intrinsic activity” value on SSTR2 [3] is listed as 43.6%. The “Yeast Assay (mm)” value at SRIF receptors is 17 mm.
The corresponding values for h-f-i-a-w-f [Peptide 5] are 44.1% and 10 mm.
As to h-f-i-k-w-f [Peptide 27], the “cAMP Assay Intrinsic activity” value on SSTR2 [3] was determined as 71.2%. For the same molecule, the “Yeast Assay (mm)” value on SRIF receptors is recorded as 20.5 mm.
Take h-f-i-r-W-f [Peptide 17]: the “cAMP Assay Intrinsic activity” value on SSTR2 [3] is 50.2%. Moreover, on SRIF receptors, the “Yeast Assay (mm)” value worked out at 19 mm.
The matching figures for h-f-i-r-a-f [Peptide 6]: 13.4% and 9 mm.
In the case of h-f-i-r-f [Peptide 11], on SSTR2 [3], the “cAMP Assay Intrinsic activity” value is on record as 12.1%. The “Yeast Assay (mm)” value on SRIF receptors was determined as 14 mm.
As for h-f-i-r-w [Peptide 12], at SSTR2 [3], the “cAMP Assay Intrinsic activity” value was found to be 29.1%. On SRIF receptors, the “Yeast Assay (mm)” value is given as 16 mm.
Regarding h-f-i-r-w-F [Peptide 18], the “cAMP Assay Intrinsic activity” value at SSTR2 [3] was determined as 46.7%. For the same molecule, the “Yeast Assay (mm)” value at SRIF receptors amounted to 19 mm.
Take h-f-i-w-f [Peptide 10]: at SSTR2 [3], the “cAMP Assay Intrinsic activity” value was found to be 25.3%. For the same molecule, the “Yeast Assay (mm)” value on SRIF receptors was found to be 14 mm.
As for h-f-r-w-f [Peptide 9], the “cAMP Assay Intrinsic activity” value on SSTR2 [3] was 6.36%. Also, the “Yeast Assay (mm)” value at SRIF receptors worked out at 9 mm.
Turning to h-f-v-r-w-f [Peptide 28], the “cAMP Assay Intrinsic activity” value at SSTR2 [3] was 71.2%. In addition, the “Yeast Assay (mm)” value at SRIF receptors is recorded as 20 mm.
As for h-i-r-w-f [Peptide 8], the “cAMP Assay Intrinsic activity” value on SSTR2 [3] turned out to be 2.76%. The “Yeast Assay (mm)” value at SRIF receptors is given as “none”.
The matching figures for h-w-i-r-w-f [Peptide 21]: 54.7% and 18 mm.
The matching figures for h-y-i-r-w-f [Peptide 20]: 56.5% and 18 mm.
k-y-i-r-w-f [Peptide 19]: the “cAMP Assay Intrinsic activity” value at SSTR2 [3] turned out to be 33.3%. For the same molecule, the “Yeast Assay (mm)” value at SRIF receptors is listed as 9 mm.
As to w-h-i-r-w-f [Peptide 22], the “cAMP Assay Intrinsic activity” value at SSTR2 [3] is reported as 27.4%. Further, on SRIF receptors, the “Yeast Assay (mm)” value was “none”.
With w-y-i-r-w-f [Peptide 23], the “cAMP Assay Intrinsic activity” value on SSTR2 [3] was determined as 5.64%. Moreover, the “Yeast Assay (mm)” value on SRIF receptors is given as “none”.

Source of the values: EP0863156A1, “Peptides useful as somatostatin antagonists” (American Cyanamid Company, priority 1997, dated 1998).
